Experimental data reported in ChEMBL document CHEMBL5212743, “Selectivity Literature for EUbOPEN Chemogenomics Library wave 3” (2023).

Experiments:
[1] = molecular target: T1, Gamma-aminobutyric acid receptor subunit alpha-1 (Homo sapiens, UniProt P14867); experiment: Selectivity interaction (GPCR panel (PDSP screen)) EUB0000702a GABRA1
T1 sequence (P14867 whole entry): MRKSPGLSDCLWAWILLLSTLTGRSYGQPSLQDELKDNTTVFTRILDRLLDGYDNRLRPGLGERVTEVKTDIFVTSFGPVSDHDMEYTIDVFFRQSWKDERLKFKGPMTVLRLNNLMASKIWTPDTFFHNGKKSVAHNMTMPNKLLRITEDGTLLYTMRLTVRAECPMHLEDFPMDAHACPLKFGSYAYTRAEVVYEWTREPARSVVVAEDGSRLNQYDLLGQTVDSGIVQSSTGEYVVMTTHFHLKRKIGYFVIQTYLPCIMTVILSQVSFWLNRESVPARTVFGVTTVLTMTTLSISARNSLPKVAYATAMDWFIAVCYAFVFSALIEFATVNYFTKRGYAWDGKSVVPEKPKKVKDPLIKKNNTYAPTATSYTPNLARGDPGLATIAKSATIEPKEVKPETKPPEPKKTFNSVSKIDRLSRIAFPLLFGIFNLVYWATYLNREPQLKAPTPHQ

[2] = molecular target: Dual specificity protein kinase CLK1 (Homo sapiens, UniProt P49759); experiment: Selectivity interaction (KinomeScan (DiscoverX)) EUB0000702a CLK1; conditions: at 1 µM
[3] = test system: Leucine-rich repeat serine/threonine-protein kinase 2 (Homo sapiens), Q5S007 [G2019S]; experiment: Selectivity interaction (KinomeScan (DiscoverX)) EUB0000702a LRRK2; conditions: at 1 µM
[4] = test system: T2, Receptor-type tyrosine-protein kinase FLT3 (Homo sapiens), P36888 [D835V]; experiment: Selectivity interaction (KinomeScan (DiscoverX)) EUB0000305b FLT3; conditions: at 100 nM
T2 sequence (whole entry): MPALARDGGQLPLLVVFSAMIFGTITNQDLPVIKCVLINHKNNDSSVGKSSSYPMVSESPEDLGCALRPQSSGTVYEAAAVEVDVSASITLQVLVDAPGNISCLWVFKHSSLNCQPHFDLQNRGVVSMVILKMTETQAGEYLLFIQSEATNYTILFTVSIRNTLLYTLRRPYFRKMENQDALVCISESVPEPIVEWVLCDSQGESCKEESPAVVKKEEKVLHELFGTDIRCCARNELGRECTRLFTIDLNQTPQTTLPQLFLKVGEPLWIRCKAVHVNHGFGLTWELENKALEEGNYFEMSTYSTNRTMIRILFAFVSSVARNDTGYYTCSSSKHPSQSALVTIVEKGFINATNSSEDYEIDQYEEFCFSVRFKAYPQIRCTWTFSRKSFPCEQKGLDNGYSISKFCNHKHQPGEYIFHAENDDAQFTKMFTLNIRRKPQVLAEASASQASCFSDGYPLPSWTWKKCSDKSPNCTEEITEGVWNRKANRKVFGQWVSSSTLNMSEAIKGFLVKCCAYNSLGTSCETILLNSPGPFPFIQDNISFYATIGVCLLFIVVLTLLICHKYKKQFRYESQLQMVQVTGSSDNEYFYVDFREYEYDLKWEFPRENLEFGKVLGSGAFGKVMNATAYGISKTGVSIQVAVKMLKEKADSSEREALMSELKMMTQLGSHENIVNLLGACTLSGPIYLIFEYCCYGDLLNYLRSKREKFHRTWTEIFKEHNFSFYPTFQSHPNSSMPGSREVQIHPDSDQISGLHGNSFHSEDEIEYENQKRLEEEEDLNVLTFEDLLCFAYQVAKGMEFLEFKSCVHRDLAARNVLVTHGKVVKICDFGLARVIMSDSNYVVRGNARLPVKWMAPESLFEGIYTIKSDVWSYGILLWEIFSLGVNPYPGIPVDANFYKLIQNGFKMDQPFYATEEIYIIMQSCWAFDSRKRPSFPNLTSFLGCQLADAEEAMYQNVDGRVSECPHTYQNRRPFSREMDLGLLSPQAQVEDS

[5] = molecular target: Tyrosine-protein kinase Blk (Homo sapiens, UniProt P51451); conditions: at 1 µM
[6] = molecular target: Proto-oncogene tyrosine-protein kinase ROS (Homo sapiens) (UniProt P08922); conditions: at 1 µM
[7] = molecular target: Serine/threonine-protein kinase Chk2 (Homo sapiens, UniProt O96017); conditions: at 1 µM
[8] = molecular target: Cyclin-dependent kinase 19 (Homo sapiens) (UniProt Q9BWU1); conditions: at 1 µM
[9] = molecular target: Casein kinase I isoform alpha (Homo sapiens) (UniProt P48729); conditions: at 10 µM
[10] = molecular target: Dual specificity mitogen-activated protein kinase kinase 1 (Homo sapiens, UniProt Q02750); experiment: Selectivity interaction (Kinase panel (University of Dundee)) EUB0000169b MAP2K1; conditions: at 10 µM
[11] = molecular target: Serine/threonine-protein kinase Nek6 (Homo sapiens) (UniProt Q9HC98); experiment: Selectivity interaction (Kinase panel (University of Dundee)) EUB0000169b NEK6; conditions: at 10 µM
[12] = molecular target: RAC-alpha serine/threonine-protein kinase (Homo sapiens, UniProt P31749); experiment: Selectivity interaction (Kinase panel (University of Dundee)) EUB0000169b AKT1; conditions: at 10 µM
[13] = molecular target: T3, Phosphatidylinositol 5-phosphate 4-kinase type-2 gamma (Homo sapiens) (UniProt Q8TBX8); experiment: Selectivity interaction (KinomeScan (DiscoverX)) EUB0000169b PIP4K2C; conditions: at 1 µM
T3 sequence (whole entry): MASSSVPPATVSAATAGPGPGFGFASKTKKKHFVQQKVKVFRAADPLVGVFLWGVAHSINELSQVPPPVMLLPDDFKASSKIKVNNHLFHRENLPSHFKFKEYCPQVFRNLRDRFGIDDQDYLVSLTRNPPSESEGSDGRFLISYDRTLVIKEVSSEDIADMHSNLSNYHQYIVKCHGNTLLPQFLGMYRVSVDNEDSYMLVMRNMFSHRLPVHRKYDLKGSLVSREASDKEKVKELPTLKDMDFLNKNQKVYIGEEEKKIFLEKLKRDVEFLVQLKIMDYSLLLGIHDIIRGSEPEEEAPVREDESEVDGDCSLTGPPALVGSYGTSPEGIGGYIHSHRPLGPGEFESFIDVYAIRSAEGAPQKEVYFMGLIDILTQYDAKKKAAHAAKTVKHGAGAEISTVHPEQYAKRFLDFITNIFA

[14] = molecular target: Serine/threonine-protein kinase PLK2 (Homo sapiens) (UniProt Q9NYY3); experiment: Selectivity interaction (KinomeScan (DiscoverX)) EUB0000698a PLK2; conditions: at 10 µM
[15] = molecular target: BMP-2-inducible protein kinase (Homo sapiens) (UniProt Q9NSY1); experiment: Selectivity interaction (KinomeScan (DiscoverX)) EUB0000698a BMP2K; conditions: at 10 µM
[16] = molecular target: Non-receptor tyrosine-protein kinase TYK2 (Homo sapiens, UniProt P29597); experiment: Selectivity interaction (Enzymatic assay) EUB0000178b TYK2
[17] = molecular target: Aurora kinase B (Homo sapiens, UniProt Q96GD4); experiment: Selectivity interaction (Enzymatic assay) EUB0000178b AURKB
Sequence of Aurora kinase B (Q96GD4 whole entry): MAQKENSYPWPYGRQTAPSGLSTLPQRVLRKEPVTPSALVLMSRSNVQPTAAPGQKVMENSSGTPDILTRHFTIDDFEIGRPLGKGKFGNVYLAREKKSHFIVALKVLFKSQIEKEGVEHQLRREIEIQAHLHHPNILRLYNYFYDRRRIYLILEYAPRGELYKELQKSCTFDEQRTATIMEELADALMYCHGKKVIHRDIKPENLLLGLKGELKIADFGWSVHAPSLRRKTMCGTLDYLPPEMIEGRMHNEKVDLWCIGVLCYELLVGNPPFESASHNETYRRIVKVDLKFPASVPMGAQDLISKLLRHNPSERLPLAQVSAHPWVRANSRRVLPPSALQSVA

Sequence of Tyrosine-protein kinase Blk (P51451 whole entry, looked up): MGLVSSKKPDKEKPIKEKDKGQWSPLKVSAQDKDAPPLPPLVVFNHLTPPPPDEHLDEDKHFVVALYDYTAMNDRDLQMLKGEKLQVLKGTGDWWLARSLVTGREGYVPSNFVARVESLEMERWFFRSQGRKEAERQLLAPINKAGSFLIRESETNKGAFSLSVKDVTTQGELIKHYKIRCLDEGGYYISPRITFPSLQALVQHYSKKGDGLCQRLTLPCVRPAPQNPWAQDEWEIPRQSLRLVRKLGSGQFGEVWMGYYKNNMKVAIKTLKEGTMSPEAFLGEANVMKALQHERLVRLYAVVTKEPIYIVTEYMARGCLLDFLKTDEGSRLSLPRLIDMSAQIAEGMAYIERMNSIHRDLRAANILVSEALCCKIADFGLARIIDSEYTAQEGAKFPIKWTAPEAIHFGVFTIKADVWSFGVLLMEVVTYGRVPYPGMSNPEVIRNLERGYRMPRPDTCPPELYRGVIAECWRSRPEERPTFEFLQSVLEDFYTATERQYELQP
Sequence of Dual specificity mitogen-activated protein kinase kinase 1 (Q02750 whole entry): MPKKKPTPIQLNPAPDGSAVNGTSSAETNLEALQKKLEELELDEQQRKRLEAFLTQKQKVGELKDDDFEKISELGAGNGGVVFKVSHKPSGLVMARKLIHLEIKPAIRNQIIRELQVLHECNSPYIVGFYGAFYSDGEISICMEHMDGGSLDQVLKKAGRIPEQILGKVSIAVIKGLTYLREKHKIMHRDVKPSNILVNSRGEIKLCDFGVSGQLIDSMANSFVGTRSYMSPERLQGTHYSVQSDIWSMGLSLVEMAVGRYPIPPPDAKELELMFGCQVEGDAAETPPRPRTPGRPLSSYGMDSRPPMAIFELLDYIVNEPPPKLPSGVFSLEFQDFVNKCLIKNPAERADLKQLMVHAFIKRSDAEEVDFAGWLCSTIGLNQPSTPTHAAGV
Sequence of Serine/threonine-protein kinase PLK2 (Homo sapiens) (Q9NYY3 whole entry, looked up): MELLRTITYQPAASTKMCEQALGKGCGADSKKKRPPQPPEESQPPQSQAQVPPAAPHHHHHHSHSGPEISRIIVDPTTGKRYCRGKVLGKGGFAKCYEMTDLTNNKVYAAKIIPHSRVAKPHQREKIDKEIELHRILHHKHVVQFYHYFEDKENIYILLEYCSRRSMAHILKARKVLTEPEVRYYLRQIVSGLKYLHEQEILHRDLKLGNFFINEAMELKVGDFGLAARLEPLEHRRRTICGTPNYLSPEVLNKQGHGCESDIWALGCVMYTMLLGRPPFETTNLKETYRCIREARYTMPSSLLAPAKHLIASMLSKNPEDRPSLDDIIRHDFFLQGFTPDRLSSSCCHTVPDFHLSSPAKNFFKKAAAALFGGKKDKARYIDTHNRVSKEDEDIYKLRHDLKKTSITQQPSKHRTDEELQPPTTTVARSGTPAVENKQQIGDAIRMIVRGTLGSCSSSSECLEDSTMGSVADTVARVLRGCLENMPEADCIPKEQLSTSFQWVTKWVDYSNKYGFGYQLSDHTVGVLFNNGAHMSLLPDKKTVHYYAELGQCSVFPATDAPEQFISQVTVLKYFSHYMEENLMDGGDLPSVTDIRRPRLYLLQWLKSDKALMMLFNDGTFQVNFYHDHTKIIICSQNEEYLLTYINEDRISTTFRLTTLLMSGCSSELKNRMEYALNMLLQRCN
Sequence of Non-receptor tyrosine-protein kinase TYK2 (P29597 whole entry): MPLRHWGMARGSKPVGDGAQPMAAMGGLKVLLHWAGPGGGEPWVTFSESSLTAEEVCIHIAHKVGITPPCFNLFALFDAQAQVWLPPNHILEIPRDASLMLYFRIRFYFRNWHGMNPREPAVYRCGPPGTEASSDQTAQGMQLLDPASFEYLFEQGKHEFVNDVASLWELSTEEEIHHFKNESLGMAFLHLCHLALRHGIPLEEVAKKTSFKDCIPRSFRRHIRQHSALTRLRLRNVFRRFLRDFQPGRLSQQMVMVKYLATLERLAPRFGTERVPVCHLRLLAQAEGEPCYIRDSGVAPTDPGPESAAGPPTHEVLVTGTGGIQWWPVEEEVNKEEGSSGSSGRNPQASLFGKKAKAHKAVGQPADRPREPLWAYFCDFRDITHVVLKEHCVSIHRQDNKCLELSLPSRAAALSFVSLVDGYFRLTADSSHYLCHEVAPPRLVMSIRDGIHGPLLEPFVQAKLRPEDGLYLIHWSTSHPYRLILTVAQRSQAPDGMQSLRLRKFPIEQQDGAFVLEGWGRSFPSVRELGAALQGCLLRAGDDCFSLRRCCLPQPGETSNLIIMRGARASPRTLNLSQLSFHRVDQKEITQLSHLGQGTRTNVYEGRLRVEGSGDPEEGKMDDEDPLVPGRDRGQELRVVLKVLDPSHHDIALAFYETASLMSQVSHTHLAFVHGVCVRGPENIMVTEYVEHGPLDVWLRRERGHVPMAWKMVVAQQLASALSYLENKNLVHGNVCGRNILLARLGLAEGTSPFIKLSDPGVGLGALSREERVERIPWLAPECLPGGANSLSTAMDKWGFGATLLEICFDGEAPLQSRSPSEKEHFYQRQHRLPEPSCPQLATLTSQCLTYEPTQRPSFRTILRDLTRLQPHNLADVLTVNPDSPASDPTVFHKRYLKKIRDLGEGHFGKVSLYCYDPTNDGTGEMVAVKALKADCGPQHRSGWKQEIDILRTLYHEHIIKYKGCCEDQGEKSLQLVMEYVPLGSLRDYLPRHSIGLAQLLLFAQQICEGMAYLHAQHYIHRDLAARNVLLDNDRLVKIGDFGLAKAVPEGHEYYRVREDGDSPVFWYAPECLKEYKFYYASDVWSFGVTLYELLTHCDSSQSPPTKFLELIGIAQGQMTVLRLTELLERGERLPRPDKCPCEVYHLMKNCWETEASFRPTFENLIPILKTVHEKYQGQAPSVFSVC
Sequence of Serine/threonine-protein kinase Nek6 (Homo sapiens) (Q9HC98 whole entry): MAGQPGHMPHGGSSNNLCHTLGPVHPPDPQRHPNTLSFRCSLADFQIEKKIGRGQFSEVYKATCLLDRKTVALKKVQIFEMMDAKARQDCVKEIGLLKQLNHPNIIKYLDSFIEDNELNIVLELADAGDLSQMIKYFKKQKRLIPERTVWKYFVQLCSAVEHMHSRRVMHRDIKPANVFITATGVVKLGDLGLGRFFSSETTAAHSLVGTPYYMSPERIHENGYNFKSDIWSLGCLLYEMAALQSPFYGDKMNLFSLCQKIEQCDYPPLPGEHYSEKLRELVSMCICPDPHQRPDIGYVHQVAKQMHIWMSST
Sequence of RAC-alpha serine/threonine-protein kinase (P31749 whole entry): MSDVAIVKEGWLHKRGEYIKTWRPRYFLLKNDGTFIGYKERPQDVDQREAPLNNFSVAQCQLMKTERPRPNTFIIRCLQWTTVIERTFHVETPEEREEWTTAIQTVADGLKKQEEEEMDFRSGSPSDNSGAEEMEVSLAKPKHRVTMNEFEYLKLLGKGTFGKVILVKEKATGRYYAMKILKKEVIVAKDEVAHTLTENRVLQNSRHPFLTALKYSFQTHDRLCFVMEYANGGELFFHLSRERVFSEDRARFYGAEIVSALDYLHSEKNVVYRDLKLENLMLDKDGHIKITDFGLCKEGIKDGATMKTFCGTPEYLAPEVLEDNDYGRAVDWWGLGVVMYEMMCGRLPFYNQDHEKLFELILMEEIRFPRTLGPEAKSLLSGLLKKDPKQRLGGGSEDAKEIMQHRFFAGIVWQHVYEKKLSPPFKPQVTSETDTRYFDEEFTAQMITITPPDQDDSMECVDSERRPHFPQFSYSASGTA
Sequence of Casein kinase I isoform alpha (Homo sapiens) (P48729 2-337 limits assumed): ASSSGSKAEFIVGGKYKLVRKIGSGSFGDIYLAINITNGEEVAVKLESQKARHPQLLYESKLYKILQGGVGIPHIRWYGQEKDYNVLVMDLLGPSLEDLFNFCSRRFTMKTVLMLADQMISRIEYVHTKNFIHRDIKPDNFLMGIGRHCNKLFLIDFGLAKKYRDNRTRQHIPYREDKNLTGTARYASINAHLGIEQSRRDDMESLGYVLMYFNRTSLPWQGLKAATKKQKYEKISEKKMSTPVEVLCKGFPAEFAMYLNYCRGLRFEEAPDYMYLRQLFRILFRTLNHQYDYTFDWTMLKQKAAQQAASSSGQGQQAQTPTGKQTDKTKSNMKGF
Sequence of Cyclin-dependent kinase 19 (Homo sapiens) (Q9BWU1 whole entry, canonical isoform): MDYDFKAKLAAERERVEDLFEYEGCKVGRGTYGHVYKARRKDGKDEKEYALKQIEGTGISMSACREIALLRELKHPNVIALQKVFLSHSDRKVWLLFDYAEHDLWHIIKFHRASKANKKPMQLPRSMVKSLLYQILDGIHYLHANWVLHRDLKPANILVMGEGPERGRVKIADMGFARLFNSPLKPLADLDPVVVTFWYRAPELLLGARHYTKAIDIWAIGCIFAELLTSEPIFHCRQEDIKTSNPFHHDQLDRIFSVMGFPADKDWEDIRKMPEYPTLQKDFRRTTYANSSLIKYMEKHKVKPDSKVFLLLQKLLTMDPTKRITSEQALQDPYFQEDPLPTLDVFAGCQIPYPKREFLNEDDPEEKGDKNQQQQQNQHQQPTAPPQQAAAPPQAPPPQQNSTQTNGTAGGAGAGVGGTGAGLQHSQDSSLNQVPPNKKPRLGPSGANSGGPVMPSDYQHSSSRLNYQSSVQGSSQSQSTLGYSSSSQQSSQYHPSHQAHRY

CN(c1ccnc(CNc2nc(Nc3ccc4c(c3)CC(=O)N4)ncc2C(F)(F)F)n1)S(C)(=O)=O [PF-00911705]
Ki [1]: 1480 nM | % of control [2]: 4.4% | % of control [3]: 7.3%

C[C@H](c1ccnc(Nc2nc3ccc(-c4cc(N(C)C)ncn4)cc3[nH]2)c1)N1CCN(C(=O)CC(F)(F)F)CC1 [BAY-985]
% of control [4]: 32%

CCOc1cn(-c2ccc(F)cc2C)nc1C(=O)Nc1ccc(Oc2ccnc3cc(OC)c(OC)cc23)c(F)c1
% of control [5]: < 10% | % of control [6]: < 10% | % of control [7]: < 10% | % of control [8]: < 10%

CC[C@@H]1C(=O)N(C)c2cnc(Nc3ccc(C(=O)NC4CCN(C)CC4)cc3OC)nc2N1C1CCCC1
% of control [9]: 56% | % of control [10]: 115% | % of control [11]: 110% | % of control [12]: 90% | % of control [13]: 4.2%

COc1cc2ncn(-c3cc(OCc4ccccc4C(F)(F)F)c(C(N)=O)s3)c2cc1OC [GW843682X]
% of control [14]: 0.2% | % of control [15]: 1%

CN1C(=O)c2sccc2N(C)c2nc(Nc3ccc(S(N)(=O)=O)cc3)ncc21
IC50 [16]: 254 nM | IC50 [17]: 19.4 nM
